Structures are written as SMILES.

The test system of the assay is gap junction channels. Kind of assay: Cell-cell dye transfer after local uncaging in C. elegans embryos (control experiments). The settings on record: α-GA 25 μM, 4-cell embryo, eggshell thinned with bleach and chitinase, ABp uncaged. It counts as in vivo. The source says: To study the pattern of cell-cell coupling during early development, embryos were collected from injected worms and subjected to differential interference contrast (“DIC”) imaging. Three to four hours after injection, early embryos were collected from injected worms by cutting the worms near the uterus. Labeled embryos were transferred onto a 2% agar pad, covered with a coverslip, and mounted on an inverted fluorescence microscope (Axiovert 200M, Carl Zeiss, Peabody, Mass.). During uncaging and imaging, motorized filter wheels (Ludl Electronics Products, Hawthorne, N.Y.) were employed to select excitation and emission wavelengths by passing light from a Xeon lamp (75 W) through bandpass filters (Chroma Technology, Rockingham, Vt.). A neutral density filter was also added to the light path to reduce the excitation light intensity by about 70%. The typical UV uncaging duration is about 2 seconds. Bandpass filters were chosen for UV uncaging (360±20 nm), coumarin imaging (excitation 425±5 nm, emission 460±15 nm), GFP imaging (excitation 488±7.5 nm, emission 530±20 nm), and rhodamine imaging (excitation 560±20 nm, emission 615±30 nm). A customized multiple path dichroic mirror was used for the UV uncaging and 3-color imaging. Epifluorescence was collected with a cooled CCD camera (ORCA-ER, Hamamatsu, Bridgewater, N.J.) under the control of OpenLab software (Improvision, Waltham, Mass.). […]

As for `CC1(C)[C@@H](O)CC[C@]2(C)[C@H]3C(=O)C=C4[C@H]5C[C@@](C)(C(=O)O)CC[C@]5(C)CC[C@@]4(C)[C@]3(C)CC[C@@H]12` [α-GA, 18α-glycyrrhetinic acid], the “cell-cell dye transfer after uncaging dextran-CANPE-HCC in presence of blocker” value is recorded as “dye transfer was not observed”.
